Test results: PubChem BioAssay (NCI)
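The concentration for 50% growth inhibition is given as GI50. TGI: total growth inhibition.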

Tests used:
Assay in all cases: NCI tumour cell line growth inhibition, 384-well format; in the data active means GI50 below about 0.43 µM; inactive means the rest
SNB-19 CNS = tested on: SNB-19 CNS
TK-10 renal = tested on: TK-10 renal
SK-OV-3 ovarian = tested on: SK-OV-3 ovarian
OVCAR-3 ovarian = tested on: OVCAR-3 ovarian
OVCAR-8 ovarian = tested on: OVCAR-8 ovarian
UACC-257 melanoma = tested on: UACC-257 melanoma
MALME-3M melanoma = tested on: MALME-3M melanoma
HL-60(TB) leukemia = tested on: HL-60(TB) leukemia
RPMI-8226 leukemia = tested on: RPMI-8226 leukemia
NCI-H226 lung = tested on: NCI-H226 lung
HCC-2998 colon = tested on: HCC-2998 colon
MDA-MB-435 melanoma = tested on: MDA-MB-435 melanoma
HOP-62 NSCLC = tested on: HOP-62 NSCLC
A498 renal = tested on: A498 renal
CCRF-CEM leukemia = tested on: CCRF-CEM leukemia
HOP-92 NSCLC = tested on: HOP-92 NSCLC
MOLT-4 leukemia = tested on: MOLT-4 leukemia
786-0 renal = tested on: 786-0 renal
NCI-H322M lung = tested on: NCI-H322M lung
K-562 leukemia = tested on: K-562 leukemia
NCI/ADR-RES ovarian = tested on: NCI/ADR-RES ovarian
OVCAR-4 ovarian = tested on: OVCAR-4 ovarian
PC-3 prostate = tested on: PC-3 prostate
MDA-MB-468 breast = tested on: MDA-MB-468 breast
HT29 colon = tested on: HT29 colon
UO-31 renal = tested on: UO-31 renal
SN12C renal = tested on: SN12C renal
SK-MEL-2 melanoma = tested on: SK-MEL-2 melanoma
SR leukemia = tested on: SR leukemia

Cn1ncnc1[C@@H]1c2n[nH]c(=O)c3cc(F)cc(c23)N[C@H]1c1ccc(F)cc1
11.6 µM: TGI (SR leukemia)
inactive: GI50 (TK-10 renal) > 100 µM | GI50 (SK-OV-3 ovarian) > 100 µM | GI50 (OVCAR-3 ovarian) > 100 µM | GI50 (OVCAR-8 ovarian) > 100 µM | GI50 (UACC-257 melanoma) > 100 µM | GI50 (MALME-3M melanoma) > 100 µM | GI50 (HL-60(TB) leukemia) > 100 µM | GI50 (RPMI-8226 leukemia) 78.9 µM | GI50 (NCI-H226 lung) > 100 µM | GI50 (HCC-2998 colon) 43.1 µM | GI50 (MDA-MB-435 melanoma) > 100 µM | GI50 (HOP-62 NSCLC) > 100 µM | GI50 (A498 renal) > 100 µM | GI50 (CCRF-CEM leukemia) 40.9 µM | GI50 (HOP-92 NSCLC) > 100 µM | GI50 (MOLT-4 leukemia) 11.4 µM | GI50 ([…]-0 renal) > 100 µM | GI50 (NCI-H322M lung) > 100 µM | GI50 (K-562 leukemia) > 100 µM | GI50 (NCI/ADR-RES ovarian) > 100 µM | GI50 (OVCAR-4 ovarian) > 100 µM | GI50 (PC-3 prostate) > 100 µM | GI50 (MDA-MB-468 breast) 57.1 µM | GI50 (HT29 colon) > 100 µM | GI50 (UO-31 renal) > 100 µM | GI50 (SN12C renal) > 100 µM | GI50 (SK-MEL-2 melanoma) > 100 µM | GI50 (SR leukemia) 2.61 µM
24.6 µM: TGI (MOLT-4 leukemia)
> 100 µM: TGI (SNB-19 CNS) | TGI (TK-10 renal) | TGI (SK-OV-3 ovarian) | TGI (OVCAR-3 ovarian) | TGI (OVCAR-8 ovarian) | TGI (UACC-257 melanoma) | TGI (MALME-3M melanoma) | TGI (HL-60(TB) leukemia) | TGI (RPMI-8226 leukemia) | TGI (NCI-H226 lung) | TGI (HCC-2998 colon) | TGI (MDA-MB-435 melanoma) | TGI (HOP-62 NSCLC) | TGI (A498 renal) | TGI (CCRF-CEM leukemia) | TGI (HOP-92 NSCLC) | TGI (786-0 renal) | TGI (NCI-H322M lung) | TGI (K-562 leukemia) | TGI (NCI/ADR-RES ovarian) | TGI (OVCAR-4 ovarian) | TGI (PC-3 prostate) | TGI (MDA-MB-468 breast) | TGI (HT29 colon) | TGI (UO-31 renal) | TGI (SN12C renal) | TGI (SK-MEL-2 melanoma)
